Values of other authors, collected in PubChem BioAssay AID1259409 (Chemical Carcinogenesis Research Information System (CCRIS), 2018).
Several values for one entry are separate records, joined by “and”; a condition that tells them apart may be missing. Identical values can stand only once.

Test system: rodent chemically induced tumor inhibition, incidence and multiplicity
Experiment: CCRIS tumor inhibitor studies

S=C=NCCCCCc1ccccc1
tumour outcome (control, treated, inhibition, significance) (Carcinogen: 4-(METHYLNITROSAMINO)-1-(3-PYRIDYL)-1-BUTANONE, 64091-91-4, Dose [Inhibitor]: 0, 0.2 UMOL 1/D FOR 4 D ADMINISTERED PRIOR TO CARCINOGEN TREATMENT (STUDY DURATION: 116 D), Route [Inhibitor]: GAVAGE, Species: MOUSE, Strain/Sex: STRAIN A, Target Tissue: Type of Lesion: LUNG: ADENOMA, Dose [Carcinogen]: 10 UMOL ONCE 2 HR AFTER FINAL DOSE OF INHIBITOR, Promoter: NONE USED): 100%, 100%, 0%, not significant
tumour outcome (control, treated, inhibition, significance) (Carcinogen: 4-(METHYLNITROSAMINO)-1-(3-PYRIDYL)-1-BUTANONE, 64091-91-4, Dose [Inhibitor]: 0, 1 UMOL 1/D FOR 4 D ADMINISTERED PRIOR TO CARCINOGEN TREATMENT (STUDY DURATION:116 D), Route [Inhibitor]: GAVAGE, Species: MOUSE, Strain/Sex: STRAIN A, Target Tissue: Type of Lesion: LUNG: ADENOMA, Dose [Carcinogen]: 10 UMOL ONCE 2 HR AFTER FINAL DOSE OF INHIBITOR, Promoter: NONE USED): 100%, 53%, 47%, p<0.05
tumour outcome (control, treated, inhibition, significance) (Carcinogen: 4-(METHYLNITROSAMINO)-1-(3-PYRIDYL)-1-BUTANONE, 64091-91-4, Dose [Inhibitor]: 0, 5 UMOL 1/D FOR 4 D ADMINISTERED PRIOR TO CARCINOGEN TREATMENT (STUDY DURATION: 116 D), Route [Inhibitor]: GAVAGE, Species: MOUSE, Strain/Sex: STRAIN A, Target Tissue: Type of Lesion: LUNG: ADENOMA, Dose [Carcinogen]: 10 UMOL ONCE 2 HR AFTER FINAL DOSE OF INHIBITOR, Promoter: NONE USED): 100%, 25%, 75%, p<0.05

C=C1/C(=C\C=C2/CCC[C@]3(C)[C@@H]([C@H](C)CCCC(C)(C)O)CC[C@@H]23)C[C@@H](O)C[C@@H]1O
tumour outcome (control, treated, inhibition, significance) (Carcinogen: 7,12-DIMETHYLBENZ[A]ANTHRACENE, 57-97-6, Dose [Inhibitor]: 0.125 NMOL 2/WK STARTING 1 WK AFTER CARCINOGEN TREATMENT AND CONTINUING FOR 9 WK (STUDY DURATION: 10 WK), Route [Inhibitor]: DERMAL, Species: MOUSE, Strain/Sex: CD-1/FEMALE, Target Tissue: Type of Lesion: SKIN: PAPILLOMA, Dose [Carcinogen]: 20 NMOL ONCE, Promoter: 12-O-TETRADECANOYLPHORBOL-13-ACETATE, 16561-29-8): 77%, 37%, 52%, p<0.05
tumour outcome (control, treated, inhibition, significance) (Carcinogen: 7,12-DIMETHYLBENZ[A]ANTHRACENE, 57-97-6, Dose [Inhibitor]: 0.125 NMOL 2/WK STARTING 1 WK AFTER CARCINOGEN TREATMENT AND CONTINUING FOR 12 WK (STUDY DURATION: 13 WK), Route [Inhibitor]: DERMAL, Species: MOUSE, Strain/Sex: CD-1/FEMALE, Target Tissue: Type of Lesion: SKIN: PAPILLOMA, Dose [Carcinogen]: 20 NMOL ONCE, Promoter: 12-O-TETRADECANOYLPHORBOL-13-ACETATE, 16561-29-8): 96%, 70%, 27%, p<0.05
tumour outcome (control, treated, inhibition, significance) (Carcinogen: 7,12-DIMETHYLBENZ[A]ANTHRACENE, 57-97-6, Dose [Inhibitor]: 0.25 NMOL 2/WK STARTING 1 WK AFTER CARCINOGEN TREATMENT AND CONTINUING FOR 9 WK (STUDY DURATION: 10 WK), Route [Inhibitor]: DERMAL, Species: MOUSE, Strain/Sex: CD-1/FEMALE, Target Tissue: Type of Lesion: SKIN: PAPILLOMA, Dose [Carcinogen]: 20 NMOL ONCE, Promoter: 12-O-TETRADECANOYLPHORBOL-13-ACETATE, 16561-29-8): 77%, 33%, 57%, p<0.05
tumour outcome (control, treated, inhibition, significance) (Carcinogen: 7,12-DIMETHYLBENZ[A]ANTHRACENE, 57-97-6, Dose [Inhibitor]: 0.25 NMOL 2/WK STARTING 1 WK AFTER CARCINOGEN TREATMENT AND CONTINUING FOR 12 WK (STUDY DURATION: 13 WK), Route [Inhibitor]: DERMAL, Species: MOUSE, Strain/Sex: CD-1/FEMALE, Target Tissue: Type of Lesion: SKIN: PAPILLOMA, Dose [Carcinogen]: 20 NMOL ONCE, Promoter: 12-O-TETRADECANOYLPHORBOL-13-ACETATE, 16561-29-8): 96%, 70%, 27%, p<0.05
tumour outcome (control, treated, inhibition, significance) (Carcinogen: 7,12-DIMETHYLBENZ[A]ANTHRACENE, 57-97-6, Dose [Inhibitor]: 0.5 NMOL 2/WK STARTING 1 WK AFTER CARCINOGEN TREATMENT AND CONTINUING FOR 12 WK (STUDY DURATION: 13 WK), Route [Inhibitor]: DERMAL, Species: MOUSE, Strain/Sex: CD-1/FEMALE, Target Tissue: Type of Lesion: SKIN: PAPILLOMA, Dose [Carcinogen]: 20 NMOL ONCE, Promoter: 12-O-TETRADECANOYLPHORBOL-13-ACETATE, 16561-29-8): 83%, 43%, 48%, p<0.05 and 96%, 59%, 39%, p<0.05
tumour outcome (control, treated, inhibition, significance) (Carcinogen: 7,12-DIMETHYLBENZ[A]ANTHRACENE, 57-97-6, Dose [Inhibitor]: 0.5 NMOL 2/WK STARTING 1 WK AFTER CARCINOGEN TREATMENT AND CONTINUING FOR 15 WK (STUDY DURATION: 16 WK), Route [Inhibitor]: DERMAL, Species: MOUSE, Strain/Sex: CD-1/FEMALE, Target Tissue: Type of Lesion: SKIN: PAPILLOMA, Dose [Carcinogen]: 20 NMOL ONCE, Promoter: 12-O-TETRADECANOYLPHORBOL-13-ACETATE, 16561-29-8): 88%, 59%, 33%, p<0.05 and 92%, 77%, 16%, not significant
tumour outcome (control, treated, inhibition, significance) (Carcinogen: 7,12-DIMETHYLBENZ[A]ANTHRACENE, 57-97-6, Dose [Inhibitor]: 2 NMOL 2/WK STARTING 1 WK AFTER CARCINOGEN TREATMENT AND CONTINUING FOR 9 WK (STUDY DURATION: 10 WK), Route [Inhibitor]: DERMAL, Species: MOUSE, Strain/Sex: CD-1/FEMALE, Target Tissue: Type of Lesion: SKIN: PAPILLOMA, Dose [Carcinogen]: 20 NMOL ONCE, Promoter: 12-O-TETRADECANOYLPHORBOL-13-ACETATE, 16561-29-8): 47%, 4%, 91%, p<0.05
tumour outcome (control, treated, inhibition, significance) (Carcinogen: 7,12-DIMETHYLBENZ[A]ANTHRACENE, 57-97-6, Dose [Inhibitor]: 2 NMOL 2/WK STARTING 1 WK AFTER CARCINOGEN TREATMENT AND CONTINUING FOR 12 WK (STUDY DURATION: 13 WK), Route [Inhibitor]: DERMAL, Species: MOUSE, Strain/Sex: CD-1/FEMALE, Target Tissue: Type of Lesion: SKIN: PAPILLOMA, Dose [Carcinogen]: 20 NMOL ONCE, Promoter: 12-O-TETRADECANOYLPHORBOL-13-ACETATE, 16561-29-8): 83%, 12%, 86%, p<0.05
tumour outcome (control, treated, inhibition, significance) (Carcinogen: 7,12-DIMETHYLBENZ[A]ANTHRACENE, 57-97-6, Dose [Inhibitor]: 2 NMOL 2/WK STARTING 1 WK AFTER CARCINOGEN TREATMENT AND CONTINUING FOR 15 WK (STUDY DURATION: 16 WK), Route [Inhibitor]: DERMAL, Species: MOUSE, Strain/Sex: CD-1/FEMALE, Target Tissue: Type of Lesion: SKIN: PAPILLOMA, Dose [Carcinogen]: 20 NMOL ONCE, Promoter: 12-O-TETRADECANOYLPHORBOL-13-ACETATE, 16561-29-8): 88%, 18%, 80%, p<0.05
tumour outcome (control, treated, inhibition, significance) (Carcinogen: N-METHYL-N-NITROSOUREA [684-93-5], Dose [Inhibitor]: 0, 0.8 ML OF 10 µM ETHANOL SOLUTION ADMINISTERED IN NORMAL SALINE VIA CATHETER 1X/WK FOR 7 WK BEGINNING 3 WK POST CARCIN, Route [Inhibitor]: INTRAVESICAL, Species: RAT, Strain/Sex: F344/FEMALE, Target Tissue: Type of Lesion: URINARY BLADDER: TUMOR, Dose [Carcinogen]: ONCE/2 WK FOR 6 WK (STUDY DURATION: 31 WK; DOSE NOT REPORTED), Promoter: NONE): 6/9 (67%), 5/9 (56%), 16%, not significant

CC(=O)[C@H]1C[C@@H]2C[C@H]1[C@@H](N=C=S)C2
tumour outcome (control, treated, inhibition, significance) (Carcinogen: 7,12-DIMETHYLBENZ[A]ANTHRACENE, 57-97-6, Dose [Inhibitor]: 0, 100 UMOL/D IN 0.5 ML EMULPHOR EL-620 FOR 5 CONSECUTIVE DAYS BEGINNING AT 47 D OF AGE (STUDY DURATION: 155 D), Route [Inhibitor]: GAVAGE, Species: RAT, Strain/Sex: SPRAGUE-DAWLEY/FEMALE, Target Tissue: Type of Lesion: MAMMARY GLAND: TUMOR, Dose [Carcinogen]: 8 MG IN 1 ML SESAME OIL ONCE AT 50 D OF AGE, Promoter: NONE USED): 17/25 (68%), 9/19 (47%), 31%, not significant

COc1ccc(C(c2ccc(OC)cc2)C(Cl)(Cl)Cl)cc1
outcome (Carcinogen: N-NITROSOBIS(2-HYDROXYPROPYL)AMINE, 53609-64-6, Dose [Inhibitor]: 0, 1000 PPM IN DIET FOR 27 WK BEGINNING 9 WK POST CARCINOGEN TREATMENT (STUDY DURATION: 37 WK), Route [Inhibitor]: ORAL, Species: RAT, Strain/Sex: F344/FEMALE, Target Tissue: Type of Lesion: THYROID GLAND: ADENOMA, Dose [Carcinogen]: 2000 MG/KG BW 1 WK POST BILATERAL OVARIECTOMY, Promoter: SULFADIMETHOXINE, 122-11-2): 0/12 (0%), 2/15 (13%), not significant
tumour outcome (control, treated, inhibition, significance) (Carcinogen: N-NITROSOBIS(2-HYDROXYPROPYL)AMINE, 53609-64-6, Dose [Inhibitor]: 0, 1000 PPM IN DIET FOR 27 WK BEGINNING 9 WK POST CARCINOGEN TREATMENT (STUDY DURATION: 37 WK), Route [Inhibitor]: ORAL, Species: RAT, Strain/Sex: F344/FEMALE, Target Tissue: Type of Lesion: THYROID GLAND: CARCINOMA, Dose [Carcinogen]: 2000 MG/KG BW 1 WK POST BILATERAL OVARIECTOMY, Promoter: SULFADIMETHOXINE, 122-11-2): 10/12 (83%), 6/15 (40%), 52%, p<0.05

CC/C=C\C/C=C\C/C=C\C/C=C\C/C=C\C/C=C\CCC(=O)O
tumour outcome (control, treated, inhibition, significance) (Carcinogen: 7,12-DIMETHYLBENZ[A]ANTHRACENE, 57-97-6, Dose [Inhibitor]: 0, 0.5 ML 2/WK FOR 19 WK BEGINNING 1 WK POST CARCINOGEN DOSE ADMINISTERED TO RATS FED HIGH-FAT (20% CORN OIL) DIETS (STU, Route [Inhibitor]: GAVAGE, Species: RAT, Strain/Sex: SPRAGUE-DAWLEY/FEMALE, Target Tissue: Type of Lesion: MAMMARY GLAND: ADENOCARCINOMA, Dose [Carcinogen]: 5 MG ONCE AT 50 D OF AGE, Promoter: NONE USED): 24/30 (80%), 6/24 (25%), 69%, p<0.05
